# Experimental data published in patent US20220226484A1, “THERAPEUTIC PEPTIDES” (COHBAR, INC., priority 2019, published 2022).
# Columns and labels:
# [1] = test system: SH-SY5Y Neuroblastoma Cells; assay: ATP levels (CellTiter-Glo); format: cell-based, human; conditions: staurosporine 1 μM
# Method: The effect of the peptides on cellular metabolism can be assessed using an assay of ATP levels in cultured cells such as human neuroblastoma cells. Peptides were initially prepared as 10 mM stock in DMSO and used at a final concentration of 10 μM (0.1% DMSO). […] CellTiter-Glo® Assay kit was purchased from Promega. SH-SY5Y human bone marrow neuroblastoma cell line was purchased from American Type Culture Collection (Manassas, Va.) and licensed from Memorial Sloan-Kettering Cancer Center (New York, N.Y.). SH-SY5Y cells were grown in DMEM/F12 medium supplemented with 10% FBS with 100 IU/ml penicillin and 100 μg/ml streptomycin. Cultures were maintained at 37° C. in a humidified atmosphere of 5% CO2/95% air. SH-SY5Y cells were seeded at 30,000 cells per well on 96-well plates. […] ATP levels were determined using a CellTiter-Glo Assay kit (Promega) according to the manufacturer's instructions. Luminescence for each sample well on the plate was measured using a Cytation 3 plate reader (BioTek, Winooski, Vt.). Activity was calculated relative to 0.1% DMSO treated control. The relative standard deviation of the result for the 0.1% DMSO treated control was <5%.
# [2] = Cell viability, PrestoBlue Assay; format: cell-based, human; conditions: human; read-out: Cell viability, % of the background corrected DMSO control value
# Method: The effect of the peptides on cell viability can be assessed in cultured cells using suitable assay of viability such as the PrestoBlue® assay (Thermo Fisher Scientific, Waltham, Mass.). Peptides were initially prepared as 10 mM stock in DMSO and tested at a final concentration of 10 μM (0.1% DMSO). […] PrestoBlue Assay Reagent was purchased from Thermo Fisher Scientific. A172 human brain glioblastoma cell line was purchased from American Type Culture Collection (Manassas, Va.). A172 cells were grown in DMEM supplemented with 10% FBS with 100 IU/ml penicillin and 100 μg/ml streptomycin. Cultures were maintained at 37° C. in a humidified atmosphere of 5% CO2/95% air. A172 cells were seeded at 8,000 cells per well on 96-well plates. […] Cell viability was determined using a PrestoBlue Assay reagent […] according to the manufacturer's instructions. Absorption for each sample well on the plate was measured using a Cytation 3 plate reader at 560 nm and 590 nm (BioTek, Winooski, Vt.). Activity was calculated relative to 0.1% DMSO untreated control. Treatment with 0.1% DMSO alone was used as the cell viability activity control. The relative standard deviation of the DMSO control was <5%.
smiles,measurement,setting,value
"CN[C@@H]1C[C@H]2O[C@@](C)([C@@H]1OC)n1c3ccccc3c3c4c(c5c6ccccc6n2c5c31)C(=O)NC4 [staurosporine, Staurosporine, reference compound]","ATP levels, % of the 0.1% DMSO treated control value",[1],< 5%
same,viability at 1 µM,[2],< 75%
